Results reported in article PMC6136360, “Novel group of tyrosyl-DNA-phosphodiesterase 1 inhibitors based on disaccharide nucleosides as drug prototypes for anti-cancer therapy” (Journal of Enzyme Inhibition and Medicinal Chemistry, 2018).

How the values were obtained:
PARP1 = test system: PARP1; parameters: method as in PMID 24079274; conditions: cited from earlier work
TDP1 [1] = target: T1, TDP1 (Homo sapiens, UniProt Q9NUW8); test: Real-time fluorescence detection of TDP1 activity, single-stranded FAM/BHQ biosensor; format: biochemical; conditions: for Inhibitory effect on TDP1 activity (in words): single-stranded fluorescent biosensor, primary screening
T1 construct: made in house; host or cells: E. coli
T1 sequence (Q9NUW8 whole entry): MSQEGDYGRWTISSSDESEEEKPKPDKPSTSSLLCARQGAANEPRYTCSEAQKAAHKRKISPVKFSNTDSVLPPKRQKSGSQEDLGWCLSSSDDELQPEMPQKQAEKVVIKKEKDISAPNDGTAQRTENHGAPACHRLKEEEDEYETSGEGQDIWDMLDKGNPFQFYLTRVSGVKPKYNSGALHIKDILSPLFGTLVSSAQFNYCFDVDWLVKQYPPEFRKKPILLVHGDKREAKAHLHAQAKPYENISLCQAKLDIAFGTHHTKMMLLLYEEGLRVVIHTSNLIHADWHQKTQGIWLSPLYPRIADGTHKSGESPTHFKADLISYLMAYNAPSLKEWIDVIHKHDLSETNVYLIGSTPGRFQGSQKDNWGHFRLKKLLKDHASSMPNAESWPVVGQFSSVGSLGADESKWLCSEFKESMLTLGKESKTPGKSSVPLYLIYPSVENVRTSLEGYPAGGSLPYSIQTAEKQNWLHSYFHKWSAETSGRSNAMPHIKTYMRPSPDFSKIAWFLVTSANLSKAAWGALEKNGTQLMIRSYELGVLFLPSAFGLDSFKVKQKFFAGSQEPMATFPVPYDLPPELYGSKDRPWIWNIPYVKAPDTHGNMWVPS
Procedure: (§1) Conditions and details for our real-time detection of TDP1 activity using the single-stranded and hairpin fluorescent biosensors were reported in our previous work[47]. Briefly, the approach consists in fluorescence intensity measurement of the reaction of quencher removal from the fluorophore-quencher coupled DNA-oligonucleotide catalysed by TDP1 in the presence of inhibitor and in the absence of it (the control samples contained 1% DMSO). Reaction mixtures (200 µl) contained TDP1 buffer (50 mM Tris-HCl, pH 8.0, 50 mM NaCl, 7 mM β-mercaptoethanol), oligonucleotide (50 nM substrate of TDP1), testable inhibitor and purified TDP1 (1.5 nM). The reactions were incubated at a constant temperature of 26 °C in a POLARstar OPTIMA fluorimeter, BMG LABTECH, GmbH, to measure fluorescence every 55 s (Ex485/Em520 nm) during the linear phase (here data from 0 to 8 min). The average values of half maximal inhibitory concentration (IC50) were determined using an eleven-point concentration response curve in three independent experiments and calculated using MARS Data Analysis 2.0 (BMG LABTECH).
To discover inhibitors of TDP1 we recently developed original single-stranded and hairpin fluorophore–quencher coupled DNA-biosensors for real-time measurement of TDP1 cleavage activity. The single-stranded substrate is a 16-mer oligonucleotide containing both 5′-FAM fluorophore donor and a quenching 3′-BHQ moiety (Figure 1(A)). When the quencher is removed by TDP1, the fluorescence intensity increases and can be measured by fluorimeter (TDP1 catalysed reaction on biosensor is shown in Figure 3(A). Fluorescence intensity declines in the presence of inhibitor, the resulting curves of the dependence of TDP1 residual activity as a function of the concentration of inhibitors were obtained using 4-parameter logistic regression fit, which was used to calculate IC50 values[47]^,[58].
For primary screening, the effect of a large group of disaccharide nucleosides and their hydrophobic derivatives on human recombinant TDP1 activity has been evaluated by fluorescent method on a single-stranded substrate described above.

[2] = test system: WI-38 cell line (noncancerous fibroblasts derived from lung tissue); test: MTT test, cytotoxicity and combination with topotecan, WI-38; format: cell-based, human; conditions: WI-38 non-cancerous cell line
Procedure: (§2) Tumour cell line A549 (adenocarcinomic human alveolar basal epithelial cells) and noncancerous cell line WI-38 (fibroblasts derived from lung tissue of a 3 months gestation […] fetus) were used in cell-based experiments to determine the cytotoxicity of inhibitors and their effect on antitumour drug topotecan using standard MTT test[48]. Cells were incubated in Iscove’s Modified Dulbecco’s Medium (IMDM) supplemented with 10% fetal bovine serum and 40 µg/ml gentamicin, 10 U/ml penicillin, […], 0.25 µg/ml amphotericin at 37 °C and 5% CO2 for 24 h in a CO2 incubator; the optical density of the final solution was measured in the wells of the microplate at 570 nm and 620 nm wavelengths using a MultiScan FC (Thermo Scientific) microplate reader.
(§3) To study the effect of inhibitors on the cytotoxic effect of a well-known antitumour drug, the topotecan of the manufacturer “ACTAVIS GROUP PTC ehf.” was used. First of all, the 50% cytotoxic concentration (CC50) for topotecan and each inhibitor were determined to produce a defined single-agent effect. Second, three independent MTT-tests were performed with each inhibitor in combination with topotecan. Then, the synergistic coefficient (SC) was calculated according to the following formula (2)[49]: (2) SC= CC50 tpc,(+I)/CC50 tpc+CC50 I, (+tpc)/CC50 I,
(§4) CC50 tpc,(+I) and CC50 I,(+tpc) are the concentrations of topotecan and inhibitor used in combination to achieve 50% drug effect. CC50 tpc and CC50 I are the concentrations for single agents to achieve the same effect. SC values of less than, equal to, or more than 1 indicates synergy, additivity, and antagonism, respectively. The results were calculated and statistically processed in Microsoft Excel.

[3] = test system: A-549 cell line (adenocarcinomic human alveolar basal epithelial cells); test: MTT test, cytotoxicity and combination with topotecan, A-549; format: cell-based; conditions: A-549 cells
Procedure: as §2, §3, §4

TDP1 [4] = target: T1, TDP1; test: Steady-state kinetic analysis of TDP1 reaction, double-stranded (hairpin) substrate; format: biochemical
Procedure: (§5) To determine the kinetic parameters: apparent maximum rate of enzymatic reaction (Vmax), Michaelis constant (KM), constant of inhibition (KI), and possible inhibition mechanism, steady-state kinetic experiments were carried out at five fixed concentrations of substrate with variation of inhibitor concentrations. The standard reaction mixtures (200 μl) contained 50 nM, 100 nM, 200 nM, 500 nM or 1000 nM substrate, testable inhibitor, 1.5 nM recombinant human TDP1 and reaction buffer components (50 mM Tris-HCl, pH 8.0, 50 mM NaCl, 7 mM β-mercaptoethanol). After addition of the enzyme, the reaction mixtures were incubated at a constant temperature of 26 °C and measured in a POLARstar OPTIMA fluorimeter, BMG LABTECH, GmbH, to measure fluorescence every 55 s (Ex485/Em520 nm) during the linear phase (data from 0 to 8 min). The initial data (kinetic curves) were obtained in three independent experiments and statistically processed in software OriginPro 8.6.0.
(§6) Values of the inhibition constant (KI) were determined using Cornish–Bowden method. Similar experiments were performed for all seven tested inhibitors on two types of DNA substrates, and the results are shown in Table 4.

TDP1 [5] = target: T1, TDP1; test: Steady-state kinetic analysis of TDP1 reaction, single-stranded substrate; format: biochemical
Procedure: as §5
Vmax and KM decrease proportionally (Figure 6(A,B)), which corresponds to the uncompetitive type of inhibition, according to the general equation of the rate of product formation in the Michaelis–Menten kinetics.
as §6

TDP1 [6] = target: T1, TDP1; test: Fluorescence anisotropy assay of TDP1-DNA substrate complex; format: binding; conditions: 3 nM single-strand oligonucleotide without quencher, 50 nM TDP1
Procedure: Fluorescence anisotropy was measured by using a fluorescent single-strand DNA-oligonucleotide (3 nM) without quencher at the 3′-end in the presence of the inhibitor in different concentrations (Fluorescein control, CFlu = 10^−9 M). Reaction mixtures (200 µl) contained TDP1 buffer (50 mM Tris-HCl, pH 8.0, 50 mM NaCl, 7 mM β-mercaptoethanol), a single-strand DNA-oligonucleotide without quencher (3 nM substrate of TDP1), a testable inhibitor and the purified TDP1 (50 nM). The reactions were incubated at a constant temperature of 26 °C in a POLARstar OPTIMA fluorimeter, BMG LABTECH, GmbH, to measure fluorescence anisotropy every 55 s (Ex482/Em530 nm) during the linear phase (from 0 to 8 min) in two independent experiments.
Fluorescence anisotropy (r) was calculated by using the Equation (1): (1) r = (III–I⊥)/(III+ 2I⊥)
The dependence of the anisotropy on the concentration of the inhibitor was determined using a six-point response curve in two independent experiments and calculated using MARS Data Analysis 2.0 (BMG LABTECH).
To obtain some information about interaction of disaccharide nucleosides with TDP1, anisotropy of the fluorescent DNA substrate was measured. We used single-stranded oligonucleotide without a quencher at the 3′-end in the presence of testable inhibitors at different concentrations.

[7] = target: T2, SCAN1 (mutant form of TDP1 with H493R substitution) (Homo sapiens, UniProt Q9NUW8, H493R); test: Fluorescence real-time assay on mutant TDP1 (SCAN1), single-stranded oligonucleotide; format: biochemical
T2 construct: made in house; host or cells: E. coli
T2 sequence (Q9NUW8 whole entry H493R): as the sequence (Q9NUW8 whole entry) above, with H493R counted along it
From the text: The recombinant tyrosyl-DNA phosphodiesterase 1 and the mutant form of TDP1 with substitution (H493R) were expressed in the E. coli system (plasmids pET16B-TDP1 and pET16B-SCAN1 were provided by Dr. K.W. Caldecott, University of Sussex, United Kingdom and by Dr. S. El-Khamisy, University of Sheffield, United Kingdom) and purified according to the previously described technique.
as §1
The IC50 values obtained by the fluorescence real-time assay on a single-stranded oligonucleotide (section 3.1) were higher than 100 μM.

[8] = Cornish-Bowden method, read-out: Inhibition constant, KI

Q: For `Cc1cn([C@H]2C[C@H](O[C@@H]3O[C@H](CO)[C@@H](O)[C@H]3O)[C@@H](CO)O2)c(=O)[nH]c1=O` [Compound 24], which IC50 (PARP1) is on record?
A: 38000 ± 4000 nM

Q: And the “Inhibitory effect on TDP1 activity (in words)” value (TDP1 [1])?
A: not inhibited

Q: What does the source list for `Cc1cn([C@H]2C[C@H](O[C@@H](C=O)O[C@@H](C=O)CO)[C@@H](CO)O2)c(=O)[nH]c1=O` [Compound 29]?
A: IC50 (PARP1): 25000 ± 3000 nM; Inhibitory effect on TDP1 activity (in words) (TDP1 [1]): did not lead to the noticeable inhibitory activity

Q: Which “Synergy with topotecan (in words)” value [2] does the source give for `O=C(OC[C@H]1O[C@@H](O[C@H]2C[C@H](n3cc(I)c(=O)[nH]c3=O)O[C@@H]2CO)[C@H](OC(=O)c2ccccc2)[C@@H]1OC(=O)c1ccccc1)c1ccccc1` [Compound 41] here?
A: demonstrated synergy with topotecan

Q: What about the “Synergistic coefficient (SC) with topotecan” value ([3]; MTT, inhibitor in combination with topotecan, SC < 1 indicates synergy) of the same compound?
A: less than or equal to 0.7

Q: What about the “Effect on cytotoxic effect of topotecan (in words)” value ([3]; non-toxic inhibitor concentrations) of the same compound?
A: significant increase of cytotoxic effect of topotecan

Q: What about the Type of inhibition (TDP1 [4]) of the same compound?
A: Uncompetitive

Q: What about the Ki (TDP1 [4]; [8]) of the same compound?
A: 2100 ± 500 nM

Q: What about the Type of inhibition (TDP1 [5]) of the same compound?
A: Uncompetitive

Q: What about the Ki (TDP1 [5]; [8]) of the same compound?
A: 600 ± 300 nM

Q: What about the “Change of fluorescence anisotropy with inhibitor concentration” value (TDP1 [6]) of the same compound?
A: anisotropy remained unchanged

Q: What about the IC50 [7] of the same compound?
A: > 100000 nM

Q: What about the IC50 (TDP1 [1]; single-stranded fluorescent biosensor 50 nM, TDP1 1.5 nM, 26 °C, read-out: IC50 (half-maximal inhibitory concentration) of TDP1 activity) of the same compound?
A: 2800 ± 200 nM
